Assay results published in paper PMC3063124 (The Journal of neuroscience : the official journal of the …, 2011).
Read-outs that look alike come from different tables or passages of the source.

What was measured:
GluN1/GluN2D [1] = target: GluN1/GluN2D (Rattus norvegicus, UniProt P35439+Q62645); conditions: read-out: EC50 of agonist
GluN1/GluN2D [2] = target: GluN1/GluN2D (Rattus norvegicus, UniProt Q62645); type: cell-based; conditions: absence of QNZ46; continuous presence of glycine
GluN1/GluN2D (Rattus norvegicus, UniProt Q62645), sequence (Q62645 28-1323, other chains not shown): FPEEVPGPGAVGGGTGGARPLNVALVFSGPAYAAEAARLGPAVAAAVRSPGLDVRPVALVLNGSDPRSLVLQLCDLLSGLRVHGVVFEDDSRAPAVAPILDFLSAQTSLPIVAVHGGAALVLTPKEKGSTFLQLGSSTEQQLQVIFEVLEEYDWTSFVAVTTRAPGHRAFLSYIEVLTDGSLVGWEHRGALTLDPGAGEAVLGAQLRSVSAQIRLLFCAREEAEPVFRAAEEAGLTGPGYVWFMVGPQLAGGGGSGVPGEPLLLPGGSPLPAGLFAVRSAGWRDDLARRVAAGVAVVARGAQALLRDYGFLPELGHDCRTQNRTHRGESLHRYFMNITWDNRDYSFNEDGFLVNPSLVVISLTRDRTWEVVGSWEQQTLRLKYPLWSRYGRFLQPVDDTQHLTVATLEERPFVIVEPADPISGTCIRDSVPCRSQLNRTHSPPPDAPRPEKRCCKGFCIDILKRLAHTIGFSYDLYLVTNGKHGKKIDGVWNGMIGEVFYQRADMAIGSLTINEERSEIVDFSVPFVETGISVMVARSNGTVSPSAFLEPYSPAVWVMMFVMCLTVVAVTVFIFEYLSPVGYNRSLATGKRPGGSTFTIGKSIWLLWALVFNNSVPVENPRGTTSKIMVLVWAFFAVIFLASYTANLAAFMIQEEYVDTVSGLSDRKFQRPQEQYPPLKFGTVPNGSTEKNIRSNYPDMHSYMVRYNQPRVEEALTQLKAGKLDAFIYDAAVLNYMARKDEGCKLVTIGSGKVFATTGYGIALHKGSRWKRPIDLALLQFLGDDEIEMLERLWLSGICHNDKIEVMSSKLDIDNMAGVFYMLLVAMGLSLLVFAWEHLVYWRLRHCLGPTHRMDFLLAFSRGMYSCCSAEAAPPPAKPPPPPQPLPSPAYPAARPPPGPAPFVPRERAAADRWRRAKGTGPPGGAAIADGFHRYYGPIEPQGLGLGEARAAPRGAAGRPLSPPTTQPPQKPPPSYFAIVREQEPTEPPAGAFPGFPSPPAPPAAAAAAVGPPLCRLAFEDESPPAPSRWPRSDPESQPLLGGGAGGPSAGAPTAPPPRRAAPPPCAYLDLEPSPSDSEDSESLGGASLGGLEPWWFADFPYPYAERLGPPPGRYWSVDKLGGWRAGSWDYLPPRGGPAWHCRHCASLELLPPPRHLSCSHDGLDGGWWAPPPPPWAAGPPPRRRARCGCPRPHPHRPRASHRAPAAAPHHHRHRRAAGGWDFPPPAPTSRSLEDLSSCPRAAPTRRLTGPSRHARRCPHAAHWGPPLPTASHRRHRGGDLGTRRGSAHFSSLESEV

GluN1/GluN2D (Rattus norvegicus, UniProt P35439+Q62645), sequence (Q62645 28-1323, other chains not shown): as above

In the case of N[C@@H](CCC(=O)O)C(=O)O [glutamate], the EC50 (GluN1/GluN2D [1]; in the absence of QNZ46) is reported as 0.44 µM, the EC50 (GluN1/GluN2D [1]; in the presence of 10 μM QNZ46) is reported as 0.22 µM and the “time constant for agonist deactivation (τweighted)” value (GluN1/GluN2D [2]) is reported as 3810 ms.
